In assay [1] the target is T1, human Kv1.1 (HEK293) (Homo sapiens, UniProt Q09470).
T1 construct: expressed in transfected cells; host or cells: HEK293
Nature of the assay: cell-based.

Assay [2] concerns the target T2, human Kv1.3 (CHO) (Homo sapiens, UniProt P22001).
T2 construct: expressed in transfected cells; host or cells: CHO
Put plainly: cell-based.

In general, IC50 refers to the concentration that inhibits the measured activity by half.

Bridge positions count the residues as written; N and C are the ends. Square brackets hold non-standard residues; d marks the D form. Peptide text beside a SMILES is read from it. 1Nal = N[C@@H](Cc1cccc2ccccc12)C(=O)O

T1 sequence (Q09470 whole entry): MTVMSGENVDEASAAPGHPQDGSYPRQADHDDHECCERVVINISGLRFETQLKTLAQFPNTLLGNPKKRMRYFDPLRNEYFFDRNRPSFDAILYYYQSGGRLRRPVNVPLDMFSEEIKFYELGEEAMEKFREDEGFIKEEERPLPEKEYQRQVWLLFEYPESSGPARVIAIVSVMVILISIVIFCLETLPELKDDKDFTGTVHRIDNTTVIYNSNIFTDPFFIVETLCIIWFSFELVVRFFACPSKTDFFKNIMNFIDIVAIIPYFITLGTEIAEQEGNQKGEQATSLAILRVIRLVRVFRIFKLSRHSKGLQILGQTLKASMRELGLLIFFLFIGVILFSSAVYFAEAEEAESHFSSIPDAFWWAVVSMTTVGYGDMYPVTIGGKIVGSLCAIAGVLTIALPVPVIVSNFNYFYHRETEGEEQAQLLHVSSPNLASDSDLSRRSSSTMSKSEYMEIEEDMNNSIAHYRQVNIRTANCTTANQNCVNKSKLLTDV
T2 sequence (P22001 whole entry): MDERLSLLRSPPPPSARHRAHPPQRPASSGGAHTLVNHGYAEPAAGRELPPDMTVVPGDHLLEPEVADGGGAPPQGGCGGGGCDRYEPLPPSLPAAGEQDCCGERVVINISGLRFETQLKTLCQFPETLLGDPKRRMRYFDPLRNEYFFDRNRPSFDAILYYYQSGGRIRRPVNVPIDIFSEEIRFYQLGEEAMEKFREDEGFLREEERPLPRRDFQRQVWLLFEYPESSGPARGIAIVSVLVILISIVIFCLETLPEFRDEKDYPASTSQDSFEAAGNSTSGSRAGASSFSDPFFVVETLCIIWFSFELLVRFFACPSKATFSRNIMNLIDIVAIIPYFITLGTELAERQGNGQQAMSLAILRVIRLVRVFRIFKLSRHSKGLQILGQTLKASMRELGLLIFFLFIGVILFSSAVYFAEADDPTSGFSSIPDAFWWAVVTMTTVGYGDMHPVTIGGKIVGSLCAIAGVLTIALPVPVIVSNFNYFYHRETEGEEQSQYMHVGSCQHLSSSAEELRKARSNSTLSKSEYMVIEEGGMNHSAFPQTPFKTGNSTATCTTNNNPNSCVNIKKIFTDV

As to `CC[C@H](C)[C@@H]1NC(=O)[C@H](CCCCN)NC(=O)[C@@H](NC(=O)[C@H](CCCCN)NC(=O)[C@@H](NC(=O)[C@H](CC(N)=O)NC(=O)[C@@H](NC(=O)[C@@H](NC(=O)[C@@H](NC(=O)CN)C(C)C)[C@@H](C)CC)[C@@H](C)CC)C(C)C)CSSC[C@@H]2NC(=O)[C@H](CCCCN)NC(=O)CNC(=O)[C@H](Cc3ccccc3)NC(=O)[C@H](CCCNC(=N)N)NC(=O)[C@H](CCSC)NC(=O)CNC(=O)[C@H](C)NC(=O)[C@H](CCCCN)NC(=O)[C@H](CCCCN)NC(=O)[C@@H]3CSSC[C@@H](C(=O)N[C@H](C(=O)N4CCC[C@H]4C(=O)N[C@@H](CCCCN)C(=O)O)[C@@H](C)O)NC(=O)[C@H](Cc4c[nH]cn4)NC(=O)[C@H](CSSC[C@H](NC(=O)[C@H](CCC(=O)O)NC(=O)[C@H](CCCNC(=N)N)NC(=O)[C@H](CO)NC1=O)C(=O)N[C@@H](CC(C)C)C(=O)N[C@@H](CCC(=O)O)C(=O)N1CCC[C@H]1C(=O)N3)NC(=O)[C@H](CCCCN)NC(=O)CNC(=O)[C@H](CC(N)=O)NC(=O)[C@H](CCSC)NC2=O` [Q13E] (H-GVIINVKCKISRECLEPCKKAGMRFGKCMNGKCHCTPK-OH; disulfide 8-28, 14-33, 18-35), the results for the IC50 in assay [1] and in assay [2] were 0.00628 nM and 0.0459 nM, respectively.

On to `CC[C@H](C)[C@@H]1NC(=O)[C@H](CCCCN)NC(=O)[C@@H](NC(=O)[C@H](CCCCN)NC(=O)[C@@H](NC(=O)[C@H](CC(N)=O)NC(=O)[C@@H](NC(=O)[C@@H](NC(=O)[C@@H](NC(=O)CN)C(C)C)[C@@H](C)CC)[C@@H](C)CC)C(C)C)CSSC[C@@H]2NC(=O)[C@H](CCCCN)NC(=O)CNC(=O)[C@H](Cc3ccccc3)NC(=O)[C@H](CCCNC(=N)N)NC(=O)[C@H](CCSC)NC(=O)CNC(=O)[C@H](C)NC(=O)[C@H](CCCCN)NC(=O)[C@H](CCCCN)NC(=O)[C@@H]3CSSC[C@@H](C(=O)N[C@H](C(=O)N4CCC[C@H]4C(=O)N[C@@H](CCCCN)C(=O)O)[C@@H](C)O)NC(=O)[C@H](Cc4c[nH]cn4)NC(=O)[C@H](CSSC[C@H](NC(=O)[C@H](CCCNC(=N)N)NC(=O)[C@H](CCCNC(=N)N)NC(=O)[C@H](CO)NC1=O)C(=O)N[C@@H](CC(C)C)C(=O)N[C@@H](CCC(=O)O)C(=O)N1CCC[C@H]1C(=O)N3)NC(=O)[C@H](CCCCN)NC(=O)CNC(=O)[C@H](CC(N)=O)NC(=O)[C@H](CCSC)NC2=O` [Q13R] (H-GVIINVKCKISRRCLEPCKKAGMRFGKCMNGKCHCTPK-OH; disulfide 8-28, 14-33, 18-35), for which the figures for the IC50 in assay [1] and in assay [2] were less than 0.00152 nM and 0.0153 nM, respectively.

Take `CC[C@H](C)[C@@H]1NC(=O)[C@H](CCCCN)NC(=O)[C@@H](NC(=O)[C@H](CCCCN)NC(=O)[C@@H](NC(=O)[C@H](CC(N)=O)NC(=O)[C@@H](NC(=O)[C@@H](NC(=O)[C@@H](NC(=O)CN)C(C)C)[C@@H](C)CC)[C@@H](C)CC)C(C)C)CSSC[C@@H]2NC(=O)[C@H](CCCCN)NC(=O)CNC(=O)[C@H](Cc3ccccc3)NC(=O)[C@H](CCCNC(=N)N)NC(=O)[C@H](CCSC)NC(=O)CNC(=O)[C@H](C)NC(=O)[C@H](CCCCN)NC(=O)[C@H](CCCCN)NC(=O)[C@@H]3CSSC[C@@H](C(=O)N[C@H](C(=O)N4CCC[C@H]4C(=O)N[C@@H](CCCCN)C(=O)O)[C@@H](C)O)NC(=O)[C@H](Cc4c[nH]cn4)NC(=O)[C@H](CSSC[C@H](NC(=O)[C@H](CCC(N)=O)NC(=O)[C@H](CCC(=O)O)NC(=O)[C@H](CO)NC1=O)C(=O)N[C@@H](CC(C)C)C(=O)N[C@@H](CCC(=O)O)C(=O)N1CCC[C@H]1C(=O)N3)NC(=O)[C@H](CCCCN)NC(=O)CNC(=O)[C@H](CC(N)=O)NC(=O)[C@H](CCSC)NC2=O` [R12E] (H-GVIINVKCKISEQCLEPCKKAGMRFGKCMNGKCHCTPK-OH; disulfide 8-28, 14-33, 18-35): the IC50 in assay [1] was 0.193 nM; in assay [2], 0.0897 nM.

As for `CC[C@H](C)[C@@H]1NC(=O)[C@H](CCCCN)NC(=O)[C@@H](NC(=O)[C@H](CCCCN)NC(=O)[C@@H](NC(=O)[C@H](CC(N)=O)NC(=O)[C@@H](NC(=O)[C@@H](NC(=O)[C@@H](NC(=O)CN)C(C)C)[C@@H](C)CC)[C@@H](C)CC)C(C)C)CSSC[C@@H]2NC(=O)[C@H](CCCCN)NC(=O)CNC(=O)[C@H](Cc3ccccc3)NC(=O)[C@H](C)NC(=O)[C@H](CCSC)NC(=O)CNC(=O)[C@H](C)NC(=O)[C@H](CCCCN)NC(=O)[C@H](CCCCN)NC(=O)[C@@H]3CSSC[C@@H](C(=O)N[C@H](C(=O)N4CCC[C@H]4C(=O)N[C@@H](CCCCN)C(=O)O)[C@@H](C)O)NC(=O)[C@H](Cc4c[nH]cn4)NC(=O)[C@H](CSSC[C@H](NC(=O)[C@H](CCC(N)=O)NC(=O)[C@H](CCCNC(=N)N)NC(=O)[C@H](CO)NC1=O)C(=O)N[C@@H](CC(C)C)C(=O)N[C@@H](CCC(=O)O)C(=O)N1CCC[C@H]1C(=O)N3)NC(=O)[C@H](CCCCN)NC(=O)CNC(=O)[C@H](CC(N)=O)NC(=O)[C@H](CCSC)NC2=O` [R24A] (H-GVIINVKCKISRQCLEPCKKAGMAFGKCMNGKCHCTPK-OH; disulfide 8-28, 14-33, 18-35), the IC50 is 1.89 nM in assay [1] and more than 3 nM in assay [2].

As for `CC[C@H](C)[C@@H]1NC(=O)[C@H](CCCCN)NC(=O)[C@@H](NC(=O)[C@H](CCCCN)NC(=O)[C@@H](NC(=O)[C@H](CC(N)=O)NC(=O)[C@@H](NC(=O)[C@@H](NC(=O)[C@@H](NC(=O)CN)C(C)C)[C@@H](C)CC)[C@@H](C)CC)C(C)C)CSSC[C@@H]2NC(=O)[C@H](CCCCN)NC(=O)CNC(=O)[C@H](Cc3ccccc3)NC(=O)[C@H](Cc3cccc4ccccc34)NC(=O)[C@H](CCSC)NC(=O)CNC(=O)[C@H](C)NC(=O)[C@H](CCCCN)NC(=O)[C@H](CCCCN)NC(=O)[C@@H]3CSSC[C@@H](C(=O)N[C@H](C(=O)N4CCC[C@H]4C(=O)N[C@@H](CCCCN)C(=O)O)[C@@H](C)O)NC(=O)[C@H](Cc4c[nH]cn4)NC(=O)[C@H](CSSC[C@H](NC(=O)[C@H](CCC(N)=O)NC(=O)[C@H](CCCNC(=N)N)NC(=O)[C@H](CO)NC1=O)C(=O)N[C@@H](CC(C)C)C(=O)N[C@@H](CCC(=O)O)C(=O)N1CCC[C@H]1C(=O)N3)NC(=O)[C@H](CCCCN)NC(=O)CNC(=O)[C@H](CC(N)=O)NC(=O)[C@H](CCSC)NC2=O` [R24Nal] (H-GVIINVKCKISRQCLEPCKKAGM[1Nal]FGKCMNGKCHCTPK-OH; disulfide 8-28, 14-33, 18-35), the IC50 in assay [1] amounted to 0.00285 nM; in assay [2] it was 0.0453 nM.

For `CC[C@H](C)[C@@H]1NC(=O)[C@H](CCCCN)NC(=O)[C@@H](NC(=O)[C@H](CCCCN)NC(=O)[C@@H](NC(=O)[C@H](CC(N)=O)NC(=O)[C@@H](NC(=O)[C@@H](NC(=O)[C@@H](NC(=O)CN)C(C)C)[C@@H](C)CC)[C@@H](C)CC)C(C)C)CSSC[C@@H]2NC(=O)[C@H](CCCCN)NC(=O)CNC(=O)[C@H](Cc3ccccc3)NC(=O)[C@H](CCCNC(=N)N)NC(=O)[C@H](CCSC)NC(=O)CNC(=O)[C@H](C)NC(=O)[C@H](CCCCN)NC(=O)[C@H](CCCCN)NC(=O)[C@@H]3CSSC[C@@H](C(=O)N[C@H](C(=O)N4CCC[C@H]4C(=O)N[C@@H](CCCCN)C(=O)O)[C@@H](C)O)NC(=O)[C@H](Cc4c[nH]cn4)NC(=O)[C@H](CSSC[C@H](NC(=O)[C@H](CCC(N)=O)NC(=O)[C@H](CCCNC(=N)N)NC(=O)[C@H](C)NC1=O)C(=O)N[C@@H](CC(C)C)C(=O)N[C@@H](CCC(=O)O)C(=O)N1CCC[C@H]1C(=O)N3)NC(=O)[C@H](CCCCN)NC(=O)CNC(=O)[C@H](CC(N)=O)NC(=O)[C@H](CCSC)NC2=O` [S11A] (H-GVIINVKCKIARQCLEPCKKAGMRFGKCMNGKCHCTPK-OH; disulfide 8-28, 14-33, 18-35), the results for the concentration for half-maximal inhibition (IC50) in assay [1] and in assay [2] were 0.113 nM and 0.0408 nM, respectively.

Values taken from patent US20090299044A1 (priority 2006, published 2009).
